Results from patent publication US8247211B2, “Glycopeptide antibiotics” (American Cyanamid Company, priority 2001, dated 2012).
In brackets after ≈: the same amount, converted by molar mass. Numbered stars: 1 amine (or outer) side, 2 acyl side, 3 side chain; on linkers, the order of the positions; unused ones are H or OH. Square brackets hold non-standard residues; d marks the D form. Peptide text beside a SMILES is read from it. * marks the point of attachment. ξ: configuration not given here. X1 = N=C1NCC(C(O)C(N[*:1])C(=O)[*:2])N1C1OC(CO)C(O)C(O)C1O; ξEnduracididine(βξ-OH,4'ξ) = N=C1NCC(C(O)C(N)C(=O)O)N1; ξPhe(4-Cl,βξ-Me) = CC(c1ccc(Cl)cc1)C(N)C(=O)O; X2 = OCC1OC(OC2C(CO)OC(*)C(O)C2O)C(O)C(O)C1O

Tests used:
Experiment in all cases: In vitro antibacterial evaluation: minimum inhibitory concentration (MIC), broth dilution method
Type in all cases: cell-based
[1] = test system: Escherichia coli
Procedure: (§1) The minimum inhibitory concentration (MIC), the lowest concentration of the antibiotic which inhibits growth of the test organism, is determined by the broth dilution method using Muller-Hinton II […] (Baltimore Biological Laboratories) following the recommendations of the National Committee for Clinical Laboratory Standards [Methods for dilution antimicrobial susceptibility tests for bacteria that grow aerobically, approved standard M7-A2, National Committee for Clinical Laboratory Standards, Villanova, Pa].
(§2) An inoculum level of 5×10^5 CFU/mL, and a range of antibiotic concentrations (64-0.06 μg/mL) is used. […] The test organisms include a spectrum of Gram-positive bacteria comprised of Staphylococcus sp., Streptococcus sp. and Enterococcus sp. These organisms include recent clinical isolates that are resistant to methicillin, penicillin and/or vancomycin.

[2] = test system: Staphylococcus sp.; details: for MIC Coagulase Negative Staphylococcus (GC 4537): strain GC 4537; for MIC Coagulase Negative Staphylococcus (GC 4538): strain GC 4538
Procedure: as §1, §2

[3] = test system: Streptococcus sp.; details: 18 hours at 35° C.
Procedure: as §1, §2

[4] = test system: Enterococcus sp.
Procedure: as §1, §2

[5] = broth dilution, 18 hours at 35° C.

CC(c1ccc(Cl)cc1)C1NC(=O)CNC(=O)C(CO)NC(=O)C(C(O)C2CNC(=N)N2C2OC(CO)C(O)C(O)C2O)NC(=O)C(C(O)C2CNC(=N)N2)NC(=O)C(Cc2ccc(OC3OC(CO)C(OC4OC(CO)C(O)C(O)C4O)C(O)C3O)cc2)NC1=O (stereo not drawn) [Example 262a, Cyclo[glycyl-4-chloro-β-methylphenylalanyl-O-(4-O-hexopyranosylhexopyranosyl)tyrosyl-3-(2-iminoimidazolidin-4-yl)seryl-3-(3-hexopyranosyl-2-iminoimidazolidin-4-yl)serylseryl]] (cyclo(G[ξPhe(4-Cl,βξ-Me)]Y(X2)[ξEnduracididine(βξ-OH,4'ξ)][X1]S); configuration not given here)
MIC Escherichia coli (GC 4560) ([1]; Escherichia coli (GC 4560)): 16 µg/mL (≈ 12 µM)
MIC Coagulase Negative Staphylococcus (GC 4547) ([2]; Coagulase Negative Staphylococcus (GC 4547), 18 hours at 35° C.): 64 µg/mL (≈ 48.1 µM)
MIC Coagulase Negative Staphylococcus (GC 4547) ([2]; Coagulase Negative Staphylococcus (GC 4547), broth dilution, 18 hours at 35° C.): 64 µg/mL (≈ 48.1 µM)
MIC Coagulase Negative Staphylococcus (GC 4548) ([2]; 18 hours at 35° C.): 64 µg/mL (≈ 48.1 µM)
MIC Coagulase Negative Staphylococcus (GC 4548) [2, 5]: 64 µg/mL (≈ 48.1 µM)
MIC Coagulase Negative Staphylococcus (GC 4549) ([2]; 18 hours at 35° C.): 16 µg/mL (≈ 12 µM)
MIC Coagulase Negative Staphylococcus (GC 4549) [2, 5]: 16 µg/mL (≈ 12 µM)
MIC Staphylococcus aureus (ATCC 29213) ([2]; Staphylococcus aureus (ATCC 29213), 18 hours at 35° C.): 64 µg/mL (≈ 48.1 µM)
MIC Staphylococcus aureus (ATCC 29213) ([2]; Staphylococcus aureus (ATCC 29213), broth dilution, 18 hours at 35° C.): 64 µg/mL (≈ 48.1 µM)
MIC Staphylococcus aureus (GC 4541) ([2]; 18 hours at 35° C.): 64 µg/mL (≈ 48.1 µM)
MIC Staphylococcus aureus (GC 4541) [2, 5]: 64 µg/mL (≈ 48.1 µM)
MIC Staphylococcus aureus (GC 4544) ([2]; 18 hours at 35° C.): 64 µg/mL (≈ 48.1 µM)
MIC Staphylococcus aureus (GC 4544) [2, 5]: 64 µg/mL (≈ 48.1 µM)
MIC Staphylococcus aureus (GC 4545) ([2]; 18 hours at 35° C.): 64 µg/mL (≈ 48.1 µM)
MIC Staphylococcus aureus (GC 4545) [2, 5]: 64 µg/mL (≈ 48.1 µM)
MIC Staphylococcus aureus-SMITH (GC 4543) ([2]; 18 hours at 35° C.): 64 µg/mL (≈ 48.1 µM)
MIC Staphylococcus aureus-SMITH (GC 4543) [2, 5]: 64 µg/mL (≈ 48.1 µM)
MIC Staphylococcus haemolyticus (GC 4546) ([2]; 18 hours at 35° C.): 64 µg/mL (≈ 48.1 µM)
MIC Staphylococcus haemolyticus (GC 4546) [2, 5]: 64 µg/mL (≈ 48.1 µM)
MIC Streptococcus agalactiae (GC 4564) ([3]; Streptococcus agalactiae (GC 4564)): 32 µg/mL (≈ 24.1 µM)
MIC Streptococcus pyogenes (ID-3187) ([3]; Streptococcus pyogenes (ID-3187)): 32 µg/mL (≈ 24.1 µM)

CC(c1ccccc1)C1NC(=O)CNC(=O)C(CO)NC(=O)C(CC2CNC(=N)N2C2OC(CO)C(O)C(O)C2O)NC(=O)C(CC2CNC(=N)N2)NC(=O)C(Cc2ccc(OC3OC(CO)C(OC4OC(CO)C(O)C(O)C4OCc4ccc(OCc5ccccc5)cc4)C(O)C3O)cc2)NC1=O (centres unmarked) [Example 246c]
MIC Escherichia coli (GC 4560) ([1]; Escherichia coli (GC 4560), 18 hours at 35° C.): 32 µg/mL (≈ 21.9 µM)
MIC Streptococcus pneumoniae (GC 1894) ([3]; Streptococcus pneumoniae (GC 1894)): 64 µg/mL (≈ 43.8 µM)
MIC Streptococcus pneumoniae (GC 1894) ([3]; broth dilution, inoculum 5×10^5 CFU/mL): 64 µg/mL (≈ 43.8 µM)
MIC Enterococcus avium (GC 4558) ([4]; Enterococcus avium (GC 4558), 18 hours at 35° C.): 64 µg/mL (≈ 43.8 µM)

CC(c1ccccc1)C1NC(=O)CNC(=O)C(CO)NC(=O)C(C(O)C2CNC(=N)N2C2OC(CO)C(O)C(O)C2O)NC(=O)C(C(O)C2CNC(=N)N2)NC(=O)C(Cc2ccc(OC3OC(CO)C(OC4OC(COC(=O)Cc5ccccc5)C(O)C(O)C4O)C(O)C3O)cc2)NC1=O (stereo not drawn) [Example 98c, Cyclo[glycyl-β-methylphenylalanyl-O-[4-O-[6-O-(phenylacetyl)hexopyranosyl]hexopyranosyl]-tyrosyl-3-(2-iminoimidazolidin-4-yl)seryl-3-(3-hexopyranosyl-2-iminoimidazolidin-4-yl)-serylseryl]]
MIC Escherichia coli (GC 4559) ([1]; strain GC 4559): 64 µg/mL (≈ 45.3 µM)
MIC Escherichia coli (GC 4560) ([1]; strain GC 4560): 0.5 µg/mL (≈ 0.354 µM)
MIC Staphylococcus aureus (ATCC 29213) [2, 5]: 2 µg/mL (≈ 1.42 µM)
MIC Staphylococcus aureus (GC 1131) [2, 5]: 2 µg/mL (≈ 1.42 µM)
MIC Staphylococcus aureus (GC 4535) [2, 5]: 4 µg/mL (≈ 2.83 µM)
MIC Staphylococcus aureus SMITH (GC 4536) [2, 5]: 2 µg/mL (≈ 1.42 µM)
MIC Coagulase Negative Staphylococcus (GC 4537) [2]: 2 µg/mL (≈ 1.42 µM)
MIC Coagulase Negative Staphylococcus (GC 4537) [2, 5]: 2 µg/mL (≈ 1.42 µM)
MIC Coagulase Negative Staphylococcus (GC 4538) [2]: 1 µg/mL (≈ 0.708 µM)
MIC Coagulase Negative Staphylococcus (GC 4538) [2, 5]: 1 µg/mL (≈ 0.708 µM)
MIC Coagulase Negative Staphylococcus (GC 4547) ([2]; strain GC 4547): 1 µg/mL (≈ 0.708 µM)
MIC Coagulase Negative Staphylococcus (GC 4547) ([2]; strain GC 4547, broth dilution, 18 hours at 35° C.): 1 µg/mL (≈ 0.708 µM)
MIC Staphylococcus aureus-SMITH (GC 4536) ([2]; strain SMITH GC 4536, broth dilution, 18 hours at 35° C.): 2 µg/mL (≈ 1.42 µM)
MIC Enterococcus faecalis (ATCC 29212) ([4]; strain ATCC 29212): 16 µg/mL (≈ 11.3 µM)
MIC Enterococcus faecalis (GC 2242) ([4]; strain GC 2242): 8 µg/mL (≈ 5.66 µM)
MIC Enterococcus faecalis (GC 4552) ([4]; strain GC 4552): 16 µg/mL (≈ 11.3 µM)
